This note sets out measurements from patent publication US6576662B2, “Compounds having anticancer activity : process for their preparation and pharmaceutical compositions containing them” (Dr. Reddy's Laboratories Limited, priority 2000, dated 2003).

Structures are written as SMILES.

Test system in one data set: not given
Experiment: not given
Settings: not given
`C=C1CCC2[C@](C)(CO)[C@H](O)CC[C@]2(C)[C@H]1CC([Se]c1ccccc1)C1=CCOC1=O` (stereo partly drawn): the melting point (as a rule, the temperature of the solid-liquid transition) stood at 186 °C. Still for that read-out and setting: then `C=C1CCC2[C@]3(C)COC(C)(c4ccccc4)OC3CC[C@]2(C)[C@H]1CC(NC(C(=O)OC)c1ccccc1)C1=CCOC1=O` (stereo partly drawn) [Example 2, 14-Deoxy-12-(O-methylphenylglycino)-3,19-O-(1-phenylethylidene) androgrpaholide], with 91 °C; and `C=C1CCC2[C@](C)(CO)C(O)CC[C@]2(C)[C@H]1CC(NC(C(=O)OC)c1ccccc1)C1=CCOC1=O` (stereo partly drawn) [Example 19, 14-Deoxy-12-(O-methylphenylglycino)andrographolide], with 68 °C; and `C=C1CCC2[C@]3(C)COC(C)(C)OC3CC[C@]2(C)[C@H]1CC(NC(Cc1ccccc1)C(=O)OC)C1=CCOC1=O` (stereo partly drawn) [Example 20, 14-Deoxy-3,19-O-isopropylidene-12-(methylphenylalanino)andrographolide], with 57 °C. The same measure, in the same setting: then `C=C1CCC2[C@]3(C)COC(c4ccccc4)OC3CC[C@]2(C)[C@H]1CC(NCc1ccccc1)C1=CCOC1=O` (stereo partly drawn) [Example 24, 3,19-O-Benzylidene-12-(N-benzylamino)-14-deoxy andrographolide], with 172 to 173 °C. In turn, `C=C1CCC2[C@](C)(CO)C(O)CC[C@]2(C)[C@H]1CC(Nc1ccc(OC)c(OC)c1)C1=CCOC1=O` (stereo partly drawn) [Example 37, 14-Deoxy-12-(3,4-dimethoxyanilino)andrographolide] registered a melting point of 225 to 230 °C. `C=C1CCC2[C@]3(C)COC(C)(C)OC3CC[C@]2(C)[C@H]1CC(Nc1cccc(C)c1C)C1=CCOC1=O` (stereo partly drawn) [Example 38, 14-Deoxy-3,19-O-isopropylidene-12-(2,3-dimethylanilino)andrographolide] came in with a melting point of 192.5 °C. Consider `C=C1CCC2[C@]3(C)COC(c4ccccc4)OC3CC[C@]2(C)[C@H]1CC(Nc1cccc(C)c1C)C1=CCOC1=O` (stereo partly drawn) [Example 40, 3,19-O-Benzylidene-14-deoxy-12-(2,3-dimethylanilino)andrographolide], for which the melting point amounted to 118 °C. `C=C1CCC2[C@](C)(CO)[C@H](O)CC[C@]2(C)[C@H]1CC(Nc1cc[nH]c(=O)n1)C1=CCOC1=O` (stereo partly drawn) [Example 49, 14-Deoxy-12-[N-(1,2-dihydro-2-pyrimidinone)amino]andrographolide] displayed a melting point of 163 °C.

In turn, `C=C1CCC2[C@](C)(CO)[C@H](O)CC[C@]2(C)[C@H]1CC(C1=CCOC1=O)n1ccc(=O)[nH]c1=O` (stereo partly drawn) [Example 50, 14-Deoxy-12-(N^1-uracil)andrographolide] came in with a melting point of 164 °C. In the case of `C=C1CCC2[C@](C)(CO)[C@H](O)CC[C@]2(C)[C@H]1CC(C1=CCOC1=O)n1cc(Br)c(=O)[nH]c1=O` (stereo partly drawn) [Example 52, 14-Deoxy-12-[N^1-(5-bromouracil)]andrographolide], the melting point came to 185 °C. Same read-out and setting: then `C=C1CCC2[C@](C)(CO)[C@H](O)CC[C@]2(C)[C@H]1CC(C1=CCOC1=O)n1cc(I)c(=O)[nH]c1=O` (stereo partly drawn) [Example 53, 14-Deoxy-12-[N^1-(5-iodouracil)]andrographolide], with 187 to 188 °C; and `C[C@]1(CO)C2CC[C@]3(CO3)[C@H](CC(Sc3ccccc3)C3=CCOC3=O)[C@@]2(C)CC[C@H]1O` (stereo partly drawn) [Example 54, 14-Deoxy-8,17-epoxy-12-phenylthio andrographolide], with 90 °C. In the case of `C=C1CCC2[C@](C)(CO)[C@H](O)CC[C@]2(C)[C@H]1CC(Sc1ccccc1)C1=CCOC1=O` (stereo partly drawn) [Example 63, 14-Deoxy-12-phenylthio andrographolide], the melting point worked out at 105 °C.

Turning to `C=C1CCC2[C@](C)(CO)[C@H](O)CC[C@]2(C)[C@H]1CC(SCC)C1=CCOC1=O` (stereo partly drawn) [Example 64, 14-Deoxy-12-ethylthio andrographolide], the melting point is 160 °C. On the same count and under the same terms, then `C=C1CCC2[C@]3(C)COC(C)(c4ccccc4)OC3CC[C@]2(C)[C@H]1CC(Sc1ccccc1)C1=CCOC1=O` (stereo partly drawn) [Example 67, 14-Deoxy-3,19-O-(1-phenylethylidene)-12-phenylthio andrographolide], with 154.1 °C; and `C=C1CCC2[C@]3(C)COC(C)(c4ccccc4)OC3CC[C@]2(C)[C@H]1CC(SCC)C1=CCOC1=O` (stereo partly drawn) [Example 68, 14-Deoxy-3,19-O-(1-phenylethylidene)-12-ethylthio andrographolide], with 122.5 to 125 °C; and `C=C1CCC2[C@]3(C)COC(c4ccccc4)OC3CC[C@]2(C)[C@H]1CC(Sc1ccccc1)C1=CCOC1=O` (stereo partly drawn) [Example 69, 3,19-O-Benzylidene-14-deoxy-12-phenylthio andrographolide], with 74 to 76 °C. The same measure, in the same setting: for `C=C1CCC2[C@](C)(COC(C)=O)C(OC(C)=O)CC[C@]2(C)[C@H]1CC(OC(C)=O)C1=CCOC1=O` (stereo partly drawn) [Example 74, 12-Acetoxy-3,19-diacetyl-14-deoxy andrographolide] the value was 152.7 °C.

`CCC(=O)OC[C@@]1(C)C2CC[C@]3(CO3)[C@H](CC(OC(=O)CNC(=O)OC(C)(C)C)C3=CCOC3=O)[C@@]2(C)CC[C@H]1OC(=O)CC` (stereo partly drawn) [Example 77, 12-(N-Bocglycinyloxy)-14-deoxy-8,17-epoxy-3,19-dipropionyl andrographolide]: the melting point turned out to be 80 °C.

A further data set deals with Human lymphocytes. Put plainly: Lymphocyte proliferation, tritiated thymidine incorporation. The following applies: Concentration 1 μM; human lymphocytes with Phytohemagglutitin A. It is filed as cell-based. The protocol:
Human lymphocytes were isolated from whole blood by using Ficoll Hypaque Plus (Amersham). On day one, 1 million lymphocytes were seeded into each well of 96 well plate in 100 μL volume of RPMI 1640 medium containing 10% FCS and Phytohemagglutitin A at 1 μg/well concentration. Plates were incubated at 37° C. in CO2 incubator for 24 h. Test compounds at various concentrations were added to test wells and only medium with vehicle was added to control wells. After 48 h of incubation […] of tritiated thymidine was added to each well. After 24 h of thymidine addition the cells were harvested and the incorporated radioactivity was determined. Stimulation Index (SI) was calculated using the formula, [formula]
A^T=Average CPM of treated wells,
A^C=Average CPM of control wells.
A general note: Uptake of a labelled nucleoside into DNA is a usual measure of proliferation.
In the case of `C=C1CCC2C(C)(COC(C)=O)C(OC(C)=O)CCC2(C)C1CC(NC(Cc1ccccc1)C(=O)OC)C1=CCOC1=O` (stereo not drawn) [Example 6, 3,19-Diacetyl-14-deoxy-12-(O-methylphenylalano)andrographolide], the “Stimulation Index (SI)” value was determined as 92. On the same count and under the same terms, for `C=C1CCC2C(C)(COC(C)=O)C(OC(C)=O)CCC2(C)C1CC(NC(CC[Se]C)C(=O)OC)C1=CCOC1=O` (stereo not drawn) [Example 12, 3,19-Diacetyl-14-deoxy-12-(O-methylselenomethionino)andrographolide] the value was 40; for `C=C1CCC2[C@](C)(CO)[C@H](O)CC[C@]2(C)[C@H]1CC(Nc1cccc(C)c1C)C1=CCOC1=O` (stereo partly drawn) [Example 28, 1-(2,3-Dimethylanilino)-14-deoxy andrographolide], 40.

For `C=C1CCC2[C@](C)(CO)[C@H](O)CC[C@]2(C)[C@H]1CC(Sc1ccccc1)C1=CCOC1=O` (stereo partly drawn) [Example 63, 14-Deoxy-12-phenylthio andrographolide], the “Stimulation Index (SI)” value came to 59.
